Source: patent US20250092044A1, “Kinase Inhibitors” (Incyte Corporation, priority 2023, published 2025)
pIC50: −log10 of the molar value.

Columns and labels:
[1] = target: pseudo-kinase domain (JH2) of human V617F mutant JAK2 (Homo sapiens (Human), UniProt O60674, F794H/V617F/W659A/W777A); test: JAK2 LanthaScreen JH2-V617F Binding Assay; settings: read-out: JH2 V617F Bind IC50
Summary of the method: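 Biotinylated His-Avi JAK2 JH2 (aa 536-812, V617F plus W659A/W777A/F794H; 0.26 nM) incubated 1 h at 25 °C with compound, 50 nM fluorescent JH2 tracer and 0.25 nM streptavidin-Tb in Tris pH 7.5 buffer. TR-FRET tracer displacement read; nonspecific binding with 2 mM ATP; IC50 from four-parameter fit.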

[2] = target: catalytic domain (JH1) of human JAK2 (Homo sapiens (Human), UniProt O60674); test: JAK2 LanthaScreen JH1 Binding Assay; settings: read-out: JH1 Bind IC50
Sequence of catalytic domain (JH1) of human JAK2 (O60674 826-1132): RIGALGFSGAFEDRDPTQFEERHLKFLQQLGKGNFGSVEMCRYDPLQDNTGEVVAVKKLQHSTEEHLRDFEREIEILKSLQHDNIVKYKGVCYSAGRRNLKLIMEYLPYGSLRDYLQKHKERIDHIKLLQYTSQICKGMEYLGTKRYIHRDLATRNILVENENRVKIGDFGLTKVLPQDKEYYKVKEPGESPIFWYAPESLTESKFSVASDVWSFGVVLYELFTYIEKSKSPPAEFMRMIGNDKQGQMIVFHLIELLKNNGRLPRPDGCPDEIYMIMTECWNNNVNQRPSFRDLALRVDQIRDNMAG
Experimental: JAK2 JH1 binding assay utilizes catalytic domain (JH1, amino acids 826-1132) of human JAK2 expressed as N-terminal FLAG-tagged, biotinylated protein in a baculovirus expression system (Carna Biosciences, Product #08-445-20N). The assay was conducted in black 384-well polystyrene plates in a final reaction volume of 20 μL. JAK2 JH1 (1.5 nM) was incubated with compounds (100 nL serially diluted in DMSO) in the presence of 50 nM fluorescent JAK2-JH1 tracer and 0.5 nM Streptavidin-Tb cryptate (Cisbio Part #610SATLB) in assay buffer (50 mM Tris, pH=7.5, 10 mM MgCl2, 0.01% Brij-35, 0.1% BSA, 1 mM EGTA, 5% Glycerol and 5 mM DTT). Non-specific binding was accessed in the presence of 2 mM ATP. After incubation for 2 hours at 25° C., LanthaScreen signals were read on a PHERAstar FS plate reader (BMG LABTECH). Data was analyzed with IDBS XLfit and GraphPad Prism 5.0 software using a four parameter dose response curve to determine IC50 for each compound.

[3] = system: TRKA; test: TRKA Enzymatic Assay; format: biochemical
Summary of the method: (§1)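 Reaction contained 0.58 nM TRKA, 1 mM ATP, 500 nM biotinylated TK substrate and 62.5 nM SEB reagent in HEPES 50 mM pH 7.0 with 10 mM MgCl2, 1 mM DTT and 0.1 mM orthovanadate, 0.5% DMSO, ATP-initiated. After 60 min at room temperature, the TR-FRET 665/620 nm ratio was read. IC50 was fitted from percent control activity versus log concentration, with DMSO and no-ATP wells as controls.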

[4] = target: TRKA (Homo sapiens (Human), UniProt P04629); test: TRKA Enzymatic Assay; format: biochemical; settings: 1 mM ATP
Sequence of TRKA (Homo sapiens (Human), UniProt P04629) (P04629 33-796, species assumed): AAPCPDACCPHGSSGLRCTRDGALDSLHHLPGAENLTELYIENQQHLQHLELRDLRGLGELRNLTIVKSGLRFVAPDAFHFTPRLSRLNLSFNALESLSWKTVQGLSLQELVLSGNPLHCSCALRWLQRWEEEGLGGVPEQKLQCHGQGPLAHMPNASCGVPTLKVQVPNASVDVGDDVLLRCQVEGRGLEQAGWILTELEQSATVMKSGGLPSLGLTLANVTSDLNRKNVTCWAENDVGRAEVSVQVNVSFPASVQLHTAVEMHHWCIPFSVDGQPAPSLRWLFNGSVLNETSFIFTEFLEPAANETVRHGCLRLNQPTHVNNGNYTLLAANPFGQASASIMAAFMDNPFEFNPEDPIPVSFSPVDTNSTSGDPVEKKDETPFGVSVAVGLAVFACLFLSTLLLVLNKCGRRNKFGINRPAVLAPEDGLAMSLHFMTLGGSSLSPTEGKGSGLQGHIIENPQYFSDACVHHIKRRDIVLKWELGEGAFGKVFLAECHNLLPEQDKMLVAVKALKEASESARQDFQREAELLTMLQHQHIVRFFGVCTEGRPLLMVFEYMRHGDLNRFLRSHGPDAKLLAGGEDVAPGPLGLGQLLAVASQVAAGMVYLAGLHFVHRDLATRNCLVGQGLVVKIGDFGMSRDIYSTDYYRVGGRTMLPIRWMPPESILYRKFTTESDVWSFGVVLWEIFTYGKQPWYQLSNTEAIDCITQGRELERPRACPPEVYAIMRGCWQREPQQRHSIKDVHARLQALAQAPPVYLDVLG
Summary of the method: as §1

[5] = system: STAT5 (Tyr694) phosphorylation in SET-2 cells; test: STAT5 (Tyr694) Phosphorylation Cell Based Assay; settings: Homo sapiens, 2 hours, read-out: SET2 IC50
Summary of the method: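 SET-2 cells in RPMI with 10% FBS were exposed to compound for 2 h at 37 °C (0.5% DMSO final). After lysis, phospho-STAT5 (Tyr694) was read by HTRF (665/620 ratio) after 24 h antibody incubation at room temperature. IC50 was fitted from percent control activity versus log concentration.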

Sequence of pseudo-kinase domain (JH2) of human V617F mutant JAK2 (O60674 536-812 V617F/W659A/W777A/F794H): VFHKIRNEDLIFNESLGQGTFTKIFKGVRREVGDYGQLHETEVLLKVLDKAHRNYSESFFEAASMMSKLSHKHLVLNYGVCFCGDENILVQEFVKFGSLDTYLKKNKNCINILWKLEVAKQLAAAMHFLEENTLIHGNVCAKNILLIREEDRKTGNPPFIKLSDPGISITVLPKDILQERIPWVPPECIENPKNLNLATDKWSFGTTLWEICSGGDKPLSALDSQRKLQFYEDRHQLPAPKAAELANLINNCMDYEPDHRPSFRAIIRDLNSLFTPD

Structure (SMILES) | pIC50 [1] | pIC50 [2] | Selectivity TRKA/JH2 V617F [3] | pIC50 [4] | pIC50 [5]
COc1nn(C)cc1-c1[nH]c2ncc3c(c2c1-c1ccc2c(cnn2C)c1)n(C1CCOCC1)c(=O)n3C [Comparative Example A, reference compound] | ≥ 8.00 | < 6.00 | ** (selectivity of >500-fold to ≤1500-fold) |  | 
[2H]C([2H])([2H])n1ncc2cc(-c3c(-c4cn(C)nc4OC)[nH]c4ncc5c(c34)n(C3CCOCC3)c(=O)n5C)ccc21 [Comparative Example B, reference compound] | ≥ 8.00 | < 6.00 | ** (selectivity of >500-fold to ≤1500-fold) | < 5.60 | 
COc1nn(C)cc1-c1[nH]c2ncc3c(c2c1-c1ccc2c(cnn2C)c1)n([C@H]1CC[C@@H](CC#N)CC1)c(=O)n3C [E, reference compound] | ≥ 8.00 | < 6.00 | ** (selectivity of >500-fold to ≤1500-fold) |  | 
CCNC(=O)c1ccc(-c2[nH]c3ncc4c(c3c2-c2ccc3c(cnn3C(C)C)c2)n([C@@H]2CC[C@@H](NC(=O)OC)C2)c(=O)n4C)cc1F [Example 6, Methyl ((1R,3R)-3-(7-(4-(ethylcarbamoyl)-3-fluorophenyl)-8-(1-isopropyl-1H-indazol-5-yl)-3-methyl-2-oxo-3,6-dihydroimidazo[4,5-d]pyrrolo[2,3-b]pyridin-1(2H)-yl)cyclopentyl)carbamate] | ≥ 8.00 | < 6.00 | ***** (selectivity of >5000-fold to ≤12500-fold) | 5.60 to 5.90 | ≥ 6.52
COC(=O)N[C@@H]1CC[C@@H](n2c(=O)n(C)c3cnc4[nH]c(-c5ccc(C(=O)NC6CC6)c(F)c5)c(-c5ccc6c(cnn6C(C)C)c5)c4c32)C1 [Example 8, Methyl ((1R,3R)-3-(7-(4-(cyclopropylcarbamoyl)-3-fluorophenyl)-8-(1-isopropyl-1H-indazol-5-yl)-3-methyl-2-oxo-3,6-dihydroimidazo[4,5-d]pyrrolo[2,3-b]pyridin-1(2H)-yl)cyclopentyl)carbamate] | ≥ 8.00 | < 6.00 | ****** (selectivity of >12500-fold) | < 5.60 | 6.10 to 6.52
COC(=O)N[C@@H]1CC[C@@H](n2c(=O)n(C)c3cnc4[nH]c(-c5ccc(C(=O)NC6CC6(F)F)c(F)c5)c(-c5ccc6c(cnn6C(C)C)c5)c4c32)C1 (stereo partly drawn) [Example 9, Methyl ((1R,3R)-3-(7-(4-((2,2-difluorocyclopropyl)carbamoyl)-3-fluorophenyl)-8-(1-isopropyl-1H-indazol-5-yl)-3-methyl-2-oxo-3,6-dihydroimidazo[4,5-d]pyrrolo[2,3-b]pyridin-1(2H)-yl)cyclopentyl)carbamate] | ≥ 8.00 | < 6.00 | ****** (selectivity of >12500-fold) | < 5.60 | 6.10 to 6.52
COC(=O)N[C@@H]1CC[C@@H](n2c(=O)n(C)c3cnc4[nH]c(-c5ccc(C(=O)NC6CC6C(F)(F)F)c(F)c5)c(-c5ccc6c(cnn6C(C)C)c5)c4c32)C1 (stereo partly drawn) [Example 10, Methyl ((1R,3R)-3-(7-(3-fluoro-4-((2-(trifluoromethyl)cyclopropyl)carbamoyl)phenyl)-8-(1-isopropyl-1H-indazol-5-yl)-3-methyl-2-oxo-3,6-dihydroimidazo[4,5-d]pyrrolo[2,3-b]pyridin-1(2H)-yl)cyclopentyl)carbamate] | ≥ 8.00 | < 6.00 | ****** (selectivity of >12500-fold) | < 5.60 | 6.10 to 6.52
COC(=O)N[C@@H]1CC[C@@H](n2c(=O)n(C)c3cnc4[nH]c(-c5ccc(C(=O)NCC(F)(F)F)c(F)c5)c(-c5ccc6c(cnn6C(C)C)c5)c4c32)C1 [Example 11, Methyl ((1R,3R)-3-(7-(3-fluoro-4-((2,2,2-trifluoroethyl)carbamoyl)phenyl)-8-(1-isopropyl-1H-indazol-5-yl)-3-methyl-2-oxo-3,6-dihydroimidazo[4,5-d]pyrrolo[2,3-b]pyridin-1(2H)-yl)cyclopentyl)carbamate] | ≥ 8.00 | < 6.00 | ****** (selectivity of >12500-fold) | < 5.60 | ≥ 6.52
CNC(=O)c1ccc(-c2[nH]c3ncc4c(c3c2-c2ccc3c(cnn3C(C)C)c2)n([C@@H]2CC[C@@H](NC(=O)OC)C2)c(=O)n4C)cc1F [Example 12, Methyl ((1R,3R)-3-(7-(3-fluoro-4-(methylcarbamoyl)phenyl)-8-(1-isopropyl-1H-indazol-5-yl)-3-methyl-2-oxo-3,6-dihydroimidazo[4,5-d]pyrrolo[2,3-b]pyridin-1(2H)-yl)cyclopentyl)carbamate] | ≥ 8.00 | < 6.00 | ****** (selectivity of >12500-fold) | < 5.60 | ≥ 6.52
COC(=O)N[C@@H]1CC[C@@H](n2c(=O)n(C)c3cnc4[nH]c(-c5ccc(C(=O)NC6(C(F)(F)F)CC6)c(F)c5)c(-c5ccc6c(cnn6C(C)C)c5)c4c32)C1 [Example 13, Methyl ((1R,3R)-3-(7-(3-fluoro-4-((1-(trifluoromethyl)cyclopropyl)carbamoyl)phenyl)-8-(1-isopropyl-1H-indazol-5-yl)-3-methyl-2-oxo-3,6-dihydroimidazo[4,5-d]pyrrolo[2,3-b]pyridin-1(2H)-yl)cyclopentyl)carbamate] | ≥ 8.00 | < 6.00 | ***** (selectivity of >5000-fold to ≤12500-fold) | < 5.60 | 6.10 to 6.52
COCCNC(=O)c1ccc(-c2[nH]c3ncc4c(c3c2-c2ccc3c(cnn3C(C)C)c2)n([C@@H]2CC[C@@H](NC(=O)OC)C2)c(=O)n4C)cc1F [Example 14, Methyl ((1R,3R)-3-(7-(3-fluoro-4-((2-methoxyethyl)carbamoyl)phenyl)-8-(1-isopropyl-1H-indazol-5-yl)-3-methyl-2-oxo-3,6-dihydroimidazo[4,5-d]pyrrolo[2,3-b]pyridin-1(2H)-yl)cyclopentyl)carbamate] | ≥ 8.00 | < 6.00 | ****** (selectivity of >12500-fold) | < 5.60 | ≥ 6.52
COCCN(C)C(=O)c1ccc(-c2[nH]c3ncc4c(c3c2-c2ccc3c(cnn3C(C)C)c2)n([C@@H]2CC[C@@H](NC(=O)OC)C2)c(=O)n4C)cc1F [Example 15, Methyl ((1R,3R)-3-(7-(3-fluoro-4-((2-methoxyethyl)(methyl)carbamoyl)phenyl)-8-(1-isopropyl-1H-indazol-5-yl)-3-methyl-2-oxo-3,6-dihydroimidazo[4,5-d]pyrrolo[2,3-b]pyridin-1(2H)-yl)cyclopentyl)carbamate] | ≥ 8.00 | < 6.00 | ****** (selectivity of >12500-fold) | < 5.60 | ≥ 6.52
COC(=O)N[C@@H]1CC[C@@H](n2c(=O)n(C)c3cnc4[nH]c(-c5ccc(C(=O)N6CCOCC6)c(F)c5)c(-c5ccc6c(cnn6C(C)C)c5)c4c32)C1 [Example 16, Methyl ((1R,3R)-3-(7-(3-fluoro-4-(morpholine-4-carbonyl)phenyl)-8-(1-isopropyl-1H-indazol-5-yl)-3-methyl-2-oxo-3,6-dihydroimidazo[4,5-d]pyrrolo[2,3-b]pyridin-1(2H)-yl)cyclopentyl)carbamate] | ≥ 8.00 | < 6.00 | ****** (selectivity of >12500-fold) | 5.60 to 5.90 | ≥ 6.52
